In patent US9210914B2, “Method for training honeybees to respond to olfactory stimuli and enhancement of memory retention therein” (LOS ALAMOS NATIONAL SECURITY, LLC, priority 2011, dated 2015):

Columns and labels:
Assay type in all cases: in vivo, Apis mellifera
honeybees [1] = test: Long-term memory retention of conditioned PER response in honeybees fed supplements
Procedure: (§1) The bees were brought back to the lab and split into three groups. One control group was fed 40% sugar water in a trough or on parafilm in cage. […] The second and third experimental groups were given 40% sugar water spiked with the cocktail. All honeybees were handled the same way. The mixture was to the honeybees from the beginning of capture, through training and until the completion of the experiment.
Long-term memory enhancements using PKA and caffeine were also tested. […] Approximately 3.9 units PKA/bee (1 μl) and 15.6 units PKA/bee (4 μl) were administrated.

honeybees [2] = test: Trainability of honeybees in PER olfactory conditioning; conditions: JHIII alone, 250 mg/ml in acetone, topical administration to thorax, 3 ul; foragers (TNT) or young (linalool)
honeybees [3] = test: Death rate of honeybees after supplement administration; conditions: Four μl PKA (15.6 units PKA/bee)
Procedure: as §1
Long-term memory enhancements using PKA and caffeine were also tested. Caffeine and PKA, when administered separately, increase long-term memory out to a minimum of 3 days post training. Approximately 3.9 units PKA/bee (1 μl) and 15.6 units PKA/bee (4 μl) were administrated.

[4] = 1 μl PKA (approximately 3.9 units PKA/bee)

## Cn1c(=O)c2c(ncn2C)n(C)c1=O [Caffeine, caffeine]
Honeybees [1]; caffeine at 2.5 mM, compared to concentrations ranging 0-5 mM
  long term memory recall: best improvement in long term memory recall

## COC(=O)/C=C(\C)CC/C=C(\C)CC[C@H]1OC1(C)C [JHIII, Juvenile Hormone III]
Honeybees [2]
  trainability: does not appear to substantially increase trainability

## Nc1ncnc2c1ncn2[C@@H]1O[C@@H]2COP(=O)(O)O[C@H]2[C@H]1O [cAMP, cyclic adenosine monophosphate]
Honeybees [1]; 1mM cAMP ingested in 40% sucrose solution, alone
  long-term memory in honeybees trained to C-4: did not appear to significantly increase long-term memory

## protein kinase A [PKA]
Honeybees [1]; [4]
  long-term memory at the 24 hour mark: increase in long-term memory
  long-term memory at the 48 hour mark: increase in long-term memory
Honeybees [3]
  death rate at Day 3 post training and exposure: larger death rate
